Measurements taken from patent publication US5416081A, “Cephalosporin compounds” (Lucky Limited, priority 1992, dated 1995).
≈ marks a conversion by molar mass, not a printed value. Read-outs that look alike come from different tables or passages of the source.

How the values were obtained:
Assay type in all cases: cell-based
S. aureus/6538pA = assay: MIC against standard strain by two-fold agar dilution, S. aureus/6538pA; conditions: Staphylococcus aureus
Protocol: (§1) These MIC values were taken by employing a two-fold dilution method: that is, two-fold serial dilutions of each of the test compounds were made and dispersed in a Muller-Hinton agar medium; 2 μl of the standard test strain which had the 10^7 CFU(Colony Forming Unit) per ml was inoculated on the medium; and these were incubated at 37° C. for 20 hours.

S. aureus/giorigio = assay: MIC against standard strain by two-fold agar dilution, S. aureus/giorigio; conditions: Staphylococcus aureus
Protocol: as §1

S. aureus/77 = assay: MIC against standard strain by two-fold agar dilution, S. aureus/77; conditions: Staphylococcus aureus
Protocol: as §1

E. coli/10536 = assay: MIC against standard strain by two-fold agar dilution, E. coli/10536; conditions: Escherichia coli
Protocol: as §1

E. coli/3190Y = assay: MIC against standard strain by two-fold agar dilution, E. coli/3190Y; conditions: Escherichia coli; E. coli/3190Y; Muller-Hinton agar, 37° C., 20 hours; read-out: MIC
Protocol: as §1

E. coli TEM1/1193E = assay: MIC against standard strain by two-fold agar dilution, E. coli TEM1/1193E; conditions: Escherichia coli, 20 h
Protocol: as §1

E. coli TEM5/3739E = assay: MIC against standard strain by two-fold agar dilution, E. coli TEM5/3739E; conditions: Escherichia coli, 20 h
Protocol: as §1

E. coli TEM9/2639E = assay: MIC against standard strain by two-fold agar dilution, E. coli TEM9/2639E; conditions: Escherichia coli, 20 h
Protocol: as §1

P. aeruginosa/1912E = assay: MIC against standard strain by two-fold agar dilution, P. aeruginosa/1912E; conditions: Pseudomonas aeruginosa; P. aeruginosa/1912E; Muller-Hinton agar, 37° C., 20 hours; read-out: MIC
Protocol: as §1

P. aeruginosa/10145 = assay: MIC against standard strain by two-fold agar dilution, P. aeruginosa/10145; conditions: Pseudomonas aeruginosa; P. aeruginosa/10145; Muller-Hinton agar, 37° C., 20 hours; read-out: MIC
Protocol: as §1

P. aeruginosa/6065Y = assay: MIC against standard strain by two-fold agar dilution, P. aeruginosa/6065Y; conditions: Pseudomonas aeruginosa; P. aeruginosa/6065Y; Muller-Hinton agar, 37° C., 20 hours; read-out: MIC
Protocol: as §1

A. calcoaceticus /15473A = assay: MIC against standard strain by two-fold agar dilution, A. calcoaceticus /15473A; conditions: Acinetobacter calcoaceticus; A. calcoaceticus /15473A; Muller-Hinton agar, 37° C., 20 hours; read-out: MIC
Protocol: as §1

E. cloacae/1194E = assay: MIC against standard strain by two-fold agar dilution, E. cloacae/1194E; conditions: Enterobacter cloacae; E. cloacae/1194E; Muller-Hinton agar, 37° C., 20 hours; read-out: MIC
Protocol: as §1

K. aerogenes/1776E = assay: MIC against standard strain by two-fold agar dilution, K. aerogenes/1776E; conditions: Klebsiella aerogenes; K. aerogenes/1776E; Muller-Hinton agar, 37° C., 20 hours; read-out: MIC
Protocol: as §1

S. marcescens/1826E = assay: MIC against standard strain by two-fold agar dilution, S. marcescens/1826E; conditions: Serratia marcescens; S. marcescens/1826E; Muller-Hinton agar, 37° C., 20 hours; read-out: MIC
Protocol: as §1

S. typhimunium/14028A = assay: MIC against standard strain by two-fold agar dilution, S. typhimunium/14028A; conditions: S. typhimunium/14028A; Muller-Hinton agar, 37° C., 20 hours; read-out: MIC
Protocol: as §1

[1] = S. aureus/77, Muller-Hinton agar, 37° C., 20 hours, read-out: MIC
[2] = S. aureus/6538pA, Muller-Hinton agar, 37° C., 20 hours, read-out: MIC
[3] = S. aureus/giorigio, Muller-Hinton agar, 37° C., 20 hours, read-out: MIC
[4] = E. coli/10536, Muller-Hinton agar, 37° C., 20 hours, read-out: MIC

SMILES	MIC (S. aureus/6538pA; 20 h) [µg/mL]	MIC (S. aureus/giorigio; 20 h) [µg/mL]	MIC (S. aureus/77; [1]) [µg/mL]	MIC (E. coli/10536; 20 h) [µg/mL]	MIC (E. coli/3190Y) [µg/mL]	MIC (E. coli TEM1/1193E) [µg/mL]	MIC (E. coli TEM5/3739E) [µg/mL]	MIC (E. coli TEM9/2639E) [µg/mL]	MIC (P. aeruginosa/1912E) [µg/mL]	MIC (P. aeruginosa/10145) [µg/mL]	MIC (P. aeruginosa/6065Y) [µg/mL]	MIC (A. calcoaceticus /15473A) [µg/mL]	MIC (E. cloacae/1194E) [µg/mL]	MIC (K. aerogenes/1776E) [µg/mL]	MIC (S. marcescens/1826E) [µg/mL]	MIC (S. typhimunium/14028A) [µg/mL]	MIC (S. aureus/6538pA; [2]) [µg/mL]	MIC (S. aureus/giorigio; [3]) [µg/mL]	MIC (S. aureus/77; 20 h) [µg/mL]	MIC (E. coli/10536; [4]) [µg/mL]
CC(C)(O/N=C(\C(=O)NC1C(=O)N2C(C(=O)[O-])=C(CSc3nc(N)c4c([n+]3N)CCC4)CSC12)c1csc(N)n1)C(=O)O (stereo not drawn) [Compound I-1, 7-[(Z)-2-(2-aminothiazol-4-yl)-2-(2-carboxyprop-2-oxyimino)acetamido]-3-(1,4-diamino-1,5,6,7-tetrahydro-cyclopentapyrimidinium-2-yl)thiomethyl-3-cephem-4-carboxylate]	2 (≈ 3.08 µM)	1 (≈ 1.54 µM)	4 (≈ 6.16 µM)	0.063 (≈ 0.097 µM)	0.016 (≈ 0.0246 µM)	0.063 (≈ 0.097 µM)	0.25 (≈ 0.385 µM)	2 (≈ 3.08 µM)	0.5 (≈ 0.77 µM)	1 (≈ 1.54 µM)	4 (≈ 6.16 µM)	2 (≈ 3.08 µM)	4 (≈ 6.16 µM)	0.13 (≈ 0.2 µM)	0.25 (≈ 0.385 µM)	0.13 (≈ 0.2 µM)				
C[n+]1c(SCC2=C(C(=O)[O-])N3C(=O)C(NC(=O)/C(=N\OC(C)(C)C(=O)O)c4csc(N)n4)C3SC2)nc(N)c2c1CCC2 (stereo not drawn) [Compound I-2, 7-[(Z)-2-(2-aminothiazol-4-yl)-2-(2-carboxyprop-2-oxyimino)acetamido]-3-(4-amino-1-methyl-1,5,6,7-tetrahydro-cyclopentapyrimidinium-2-yl)thiomethyl-3-cephem-4-carboxylate]					0.063 (≈ 0.0971 µM)	0.13 (≈ 0.2 µM)	0.5 (≈ 0.771 µM)	2 (≈ 3.08 µM)	0.5 (≈ 0.771 µM)	1 (≈ 1.54 µM)	4 (≈ 6.17 µM)	1 (≈ 1.54 µM)	4 (≈ 6.17 µM)	0.13 (≈ 0.2 µM)	0.5 (≈ 0.771 µM)	0.25 (≈ 0.385 µM)	2 (≈ 3.08 µM)	1 (≈ 1.54 µM)	8 (≈ 12.3 µM)	0.13 (≈ 0.2 µM)
Nc1nc(/C(=N/OCC(=O)O)C(=O)NC2C(=O)N3C(C(=O)[O-])=C(CSc4nc(N)c5c([n+]4N)CCC5)CSC23)cs1 (stereo not drawn) [Compound I-8, 7-[(Z)-2-(2-aminothiazol-4-yl)-2-(1-carboxymeth-1-oxyimino)acetamido]-3-(1,4-diamino-1,5,6,7-tetrahydro-cyclopentapyrimidinium-2-yl)thiomethyl-3-cephem-4-carboxylate]			4 (≈ 6.43 µM)		0.063 (≈ 0.101 µM)	0.28 (≈ 0.45 µM)	2 (≈ 3.22 µM)	2 (≈ 3.22 µM)	1 (≈ 1.61 µM)	1 (≈ 1.61 µM)	4 (≈ 6.43 µM)	4 (≈ 6.43 µM)	8 (≈ 12.9 µM)	0.25 (≈ 0.402 µM)	0.13 (≈ 0.209 µM)	0.25 (≈ 0.402 µM)	2 (≈ 3.22 µM)	2 (≈ 3.22 µM)		0.016 (≈ 0.0257 µM)
CO/N=C(\C(=O)NC1C(=O)N2C(C(=O)[O-])=C(CSc3nc(N)c4c([n+]3N)CCC4)CSC12)c1csc(N)n1 (stereo not drawn) [Compound I-10, 7-[(Z)-2-(2-aminothiazol-4-yl)-2-(methoxyimino)acetamido]-3-(1,4-diamino-1,5,6,7-tetrahydro-cyclopentapyrimidinium-2-yl)thiomethyl-3-cephem-4-carboxylate]	0.25 (≈ 0.433 µM)		0.13 (≈ 0.225 µM)		0.016 (≈ 0.0277 µM)	0.016 (≈ 0.0277 µM)	0.25 (≈ 0.433 µM)	0.5 (≈ 0.866 µM)	2 (≈ 3.46 µM)	4 (≈ 6.92 µM)	16 (≈ 27.7 µM)	4 (≈ 6.92 µM)	16 (≈ 27.7 µM)	0.5 (≈ 0.866 µM)	0.25 (≈ 0.433 µM)	0.25 (≈ 0.433 µM)				0.016 (≈ 0.0277 µM)
